Source: patent US11643438B2, “Antimicrobial peptides and methods of use” (priority 2018, dated 2023)
Values after ≈ are worked out from the molar mass of the structure shown.

Tests used:
[1] = system: Paecilomyces lilacinus 165E10; assay: Antifungal MIC80/MFC assay, fungal pathogen panel; details: Paecilomyces lilacinus 165E10
Candida albicans 8 = assay: Antifungal MIC80 assay, clinical yeast isolates
Candida albicans 30 = assay: Antifungal MIC80 assay, clinical yeast isolates
[2] = system: Candida duobushaemulonii 391; assay: Antifungal MIC80 assay, clinical yeast isolates; details: Candida duobushaemulonii 391; multidrug-resistant
[3] = system: Candida duobushaemulonii 392; assay: Antifungal MIC80 assay, clinical yeast isolates; details: Candida duobushaemulonii 392; multidrug-resistant
Candida lusitaniae 398 = assay: Antifungal MIC80 assay, clinical yeast isolates; details: Candida lusitaniae 398; multidrug-resistant
Candida auris 389 = assay: Antifungal MIC80 assay, clinical yeast isolates; details: Candida auris 389; multidrug-resistant
Candida auris 385 = assay: Antifungal MIC80 assay, clinical yeast isolates; details: Candida auris 385; multidrug-resistant
Candida auris 381 = assay: Antifungal MIC80 assay, clinical yeast isolates; details: Candida auris 381; multidrug-resistant
Candida auris 390 = assay: Antifungal MIC80 assay, clinical yeast isolates; details: Candida auris 390; multidrug-resistant
Candida glabrata 22 = assay: Antifungal MIC80 assay, clinical yeast isolates; details: Candida glabrata 22
[4] = system: Rhizopus oryzae FGSC 9543; assay: Antifungal MIC80/MFC assay, fungal pathogen panel; details: Rhizopus oryzae FGSC 9543
Candida auris 387 = assay: Antifungal MIC80 assay, clinical yeast isolates; details: Candida auris 387; multidrug-resistant
[5] = system: Aspergillus fumigatus MYA 3627; assay: Antifungal MIC80/MFC assay, fungal pathogen panel; details: MYA3627
[6] = system: Candida tropicalis ATCC750 (Y-12699); assay: Antifungal MIC80/MFC assay, fungal pathogen panel; details: Candida tropicalis ATCC750 (Y-12699)
Candida kefyr 12 = assay: Antifungal MIC80 assay, clinical yeast isolates; details: Candida kefyr 12
Candida auris 382 = assay: Antifungal MIC80 assay, clinical yeast isolates; details: Candida auris 382; multidrug-resistant
[7] = system: Hamigera insecticola NRRL35442; assay: Antifungal MIC80/MFC assay, fungal pathogen panel
Candida albicans 10 = assay: Antifungal MIC80 assay, clinical yeast isolates
Candida albicans 1 = assay: Antifungal MIC80 assay, clinical yeast isolates
[8] = system: Curvularia lunata NRRL6409; assay: Antifungal MIC80/MFC assay, fungal pathogen panel
Candida auris 388 = assay: Antifungal MIC80 assay, clinical yeast isolates; details: Candida auris 388; multidrug-resistant
Candida glabrata 17 = assay: Antifungal MIC80 assay, clinical yeast isolates; details: Candida glabrata 17
[9] = system: Aspergillus niger FGSC A732; assay: Antifungal MIC80/MFC assay, fungal pathogen panel; details: Aspergillus niger FGSC A732
[10] = system: 44 clinical yeast isolates (Candida, Kodameae, Saccharomyces); assay: Antifungal MIC80 assay, summary over 44 clinical yeast isolates; details: 44 clinical yeast isolates
Fusarium solani 243G2 = assay: Antifungal MIC80/MFC assay, fungal pathogen panel
Candida parapsilosis 23 = assay: Antifungal MIC80 assay, clinical yeast isolates; details: Candida parapsilosis 23
[11] = system: Aspergillus fumigatus NRRL5109; assay: Antifungal MIC80/MFC assay, fungal pathogen panel
[12] = system: Mucor circinelloides 235C7; assay: Antifungal MIC80/MFC assay, fungal pathogen panel
[13] = system: Saccharomyces cerevisiae 400; assay: Antifungal MIC80 assay, clinical yeast isolates; details: Saccharomyces cerevisiae 400; multidrug-resistant
Candida parapsilosis 18 = assay: Antifungal MIC80 assay, clinical yeast isolates; details: Candida parapsilosis 18
Candida krusei 25 = assay: Antifungal MIC80 assay, clinical yeast isolates; details: Candida krusei 25
Candida albicans 14 = assay: Antifungal MIC80 assay, clinical yeast isolates
[14] = system: Saccharomyces cerevisiae 399; assay: Antifungal MIC80 assay, clinical yeast isolates; details: Saccharomyces cerevisiae 399; multidrug-resistant
Candida albicans 21 = assay: Antifungal MIC80 assay, clinical yeast isolates
Candida parapsilosis 9 = assay: Antifungal MIC80 assay, clinical yeast isolates; details: Candida parapsilosis 9

C[C@@H]1[C@H](O)[C@@H](C)/C=C/C=C/C=C/C=C/C=C/C=C/C=C/[C@H](O[C@@H]2O[C@H](C)[C@@H](O)[C@H](N)[C@@H]2O)C[C@@H]2O[C@](O)(C[C@@H](O)C[C@@H](O)[C@H](O)CC[C@@H](O)C[C@@H](O)CC(=O)O[C@H]1C)C[C@H](O)[C@H]2C(=O)O [AMB, amphotericin B]
MFC [1]: >10 µM
MIC80 [1]: >10 µM
MIC80 (Candida albicans 8): 0.6 µM (≈ 0.554 µg/mL)
MIC80 (Candida albicans 30): 2.5 µM (≈ 2.31 µg/mL)
MIC80 [2]: 5 µM (≈ 4.62 µg/mL)
MIC80 [3]: 5 µM (≈ 4.62 µg/mL)
MIC80 (Candida lusitaniae 398): 0.6 µM (≈ 0.554 µg/mL)
MIC80 (Candida auris 389): 5 µM (≈ 4.62 µg/mL)
MIC80 (Candida auris 385): 2.5 µM (≈ 2.31 µg/mL)
MIC80 (Candida auris 381): 1.25 µM (≈ 1.16 µg/mL)
MIC80 (Candida auris 390): 2.5 µM (≈ 2.31 µg/mL)
MIC80 (Candida glabrata 22): 0.3 µM (≈ 0.277 µg/mL)
MFC [4]: 0.3 µM (≈ 0.277 µg/mL)
MIC80 [4]: 0.3 µM (≈ 0.277 µg/mL)
MIC80 (Candida auris 387): 2.5 µM (≈ 2.31 µg/mL)
MFC [5]: 2.5 µM (≈ 2.31 µg/mL)
MIC80 [5]: 2.5 µM (≈ 2.31 µg/mL)
MFC [6]: 2.5 µM (≈ 2.31 µg/mL)
MIC80 [6]: 1.25 µM (≈ 1.16 µg/mL)
MIC80 (Candida kefyr 12): 0.3 µM (≈ 0.277 µg/mL)
MIC80 (Candida auris 382): 1.25 µM (≈ 1.16 µg/mL)
MFC [7]: 10 µM (≈ 9.24 µg/mL)
MIC80 [7]: 2.5 µM (≈ 2.31 µg/mL)
MIC80 (Candida albicans 10): 0.6 µM (≈ 0.554 µg/mL)
MIC80 (Candida albicans 1): 0.6 µM (≈ 0.554 µg/mL)
MFC [8]: 2.5 µM (≈ 2.31 µg/mL)
MIC80 [8]: 0.3 µM (≈ 0.277 µg/mL)
MIC80 (Candida auris 388): 2.5 µM (≈ 2.31 µg/mL)
MIC80 (Candida glabrata 17): 0.3 µM (≈ 0.277 µg/mL)
MFC [9]: 2.5 µM (≈ 2.31 µg/mL)
MIC80 [9]: 0.6 µM (≈ 0.554 µg/mL)
maximum MIC80 value [10]: 2.5 µM
median MIC80 [10]: 1.25 µM
minimum MIC80 value [10]: 0.15 µM
MFC (Fusarium solani 243G2): 1.25 µM (≈ 1.16 µg/mL)
MIC80 (Fusarium solani 243G2): 1.25 µM (≈ 1.16 µg/mL)
MIC80 (Candida parapsilosis 23): 1.25 µM (≈ 1.16 µg/mL)
MFC [11]: 5 µM (≈ 4.62 µg/mL)
MIC80 [11]: 2.5 µM (≈ 2.31 µg/mL)
MFC [12]: 1.25 µM (≈ 1.16 µg/mL)
MIC80 [12]: 1.25 µM (≈ 1.16 µg/mL)
MIC80 [13]: 1.25 µM (≈ 1.16 µg/mL)
MIC80 (Candida parapsilosis 18): 1.25 µM (≈ 1.16 µg/mL)
MIC80 (Candida krusei 25): 1.25 µM (≈ 1.16 µg/mL)
MIC80 (Candida albicans 14): 1.25 µM (≈ 1.16 µg/mL)
MIC80 [14]: 2.5 µM (≈ 2.31 µg/mL)
MIC80 (Candida albicans 21): 0.6 µM (≈ 0.554 µg/mL)
MIC80 (Candida parapsilosis 9): 2.5 µM (≈ 2.31 µg/mL)
